The values that follow come from the Kinase Knowledgebase extract (Sharma et al. 2016).

Structures are written as SMILES. Some results are limits rather than exact numbers.

The target of experiment [1] is MAPK14 (human) (UniProt Q16539). The experiment is described as follows: Assessment of MAPK14 Kinase Activity.
Experiment [2] shares this target. The experiment in a line: Inhibition of MAPK14 Kinase Activity.

MAPK14 (human), sequence (Q16539 whole entry, looked up): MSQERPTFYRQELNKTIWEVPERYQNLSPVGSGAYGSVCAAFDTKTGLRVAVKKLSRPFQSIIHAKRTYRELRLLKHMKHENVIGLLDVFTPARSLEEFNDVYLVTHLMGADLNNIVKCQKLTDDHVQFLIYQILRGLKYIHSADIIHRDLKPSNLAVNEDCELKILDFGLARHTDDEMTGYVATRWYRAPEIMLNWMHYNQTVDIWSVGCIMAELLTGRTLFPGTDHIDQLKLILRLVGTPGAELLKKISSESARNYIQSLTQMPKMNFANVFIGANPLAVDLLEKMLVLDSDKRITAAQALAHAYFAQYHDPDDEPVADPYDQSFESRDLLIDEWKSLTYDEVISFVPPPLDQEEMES

Take `Cc1c(F)cc(C(=O)NC2CC2)cc1-c1ccc(C(=O)N[C@@H](C)C(C)C)c[n+]1[O-]`: the IC50 at MAPK14 (human) [1] and against MAPK14 (human) [2] was less than 10 µM each time.

For `Cc1cc(C)cc(CNC(=O)c2ccc(-c3cc(C(=O)NC4CC4)cc(F)c3C)[n+]([O-])c2)c1`, the IC50 (commonly the concentration that inhibits the measured activity by half) against MAPK14 (human) [2] was less than 10 µM.

Consider `Cc1c(F)cc(C(=O)NC2CC2)cc1-c1ccc(C(=O)NCC(C)C)c[n+]1[O-]`, for which, at MAPK14 (human) [2], the IC50 is less than 10 µM.

As for `Cc1c(F)cc(C(=O)NC2CC2)cc1-c1ccc(C(=O)NCc2cc(C(F)(F)F)ccc2F)c[n+]1[O-]`, the 50% inhibitory concentration (IC50) against MAPK14 (human) [1] and on MAPK14 (human) [2] was less than 10 µM each time.

Take `Cc1c(F)cc(C(=O)NC2CC2)cc1-c1ccc(C(=O)N[C@@H](C)C(C)(C)C)c[n+]1[O-]`: the IC50 on MAPK14 (human) [1] and against MAPK14 (human) [2] was less than 10 µM throughout.

Turning to `Cc1c(F)cc(C(=O)NC2CC2)cc1-c1ccc(C(=O)N[C@H](C)C(C)(C)C)c[n+]1[O-]`, the IC50 against MAPK14 (human) [2] is less than 10 µM.

With `Cc1c(F)cc(C(=O)NC2CC2)cc1-c1ccc(C(=O)NC(C)(C)C)c[n+]1[O-]`, the IC50 against MAPK14 (human) [1] and against MAPK14 (human) [2] was less than 10 µM throughout.

`Cc1c(F)cc(C(=O)NC2CC2)cc1-c1ccc(C(=O)NCc2cc(F)ccc2C(F)(F)F)c[n+]1[O-]`: the IC50 against MAPK14 (human) [2] is less than 10 µM.
